How the values were obtained:
Format in all cases: cell-based
human TLR7 = molecular target: T1, human TLR7 (Homo sapiens, UniProt Q9NYK1); experiment: TLR7 inhibition reporter assay (HEK-Blue SEAP); conditions: HEK-Blue cells overexpressing human TLR7, stimulated with gardiquimod 7.5 μM, 22 hour incubation
T1 construct: host or cells: HEK-Blue cells
T1 sequence (Q9NYK1 27-1049): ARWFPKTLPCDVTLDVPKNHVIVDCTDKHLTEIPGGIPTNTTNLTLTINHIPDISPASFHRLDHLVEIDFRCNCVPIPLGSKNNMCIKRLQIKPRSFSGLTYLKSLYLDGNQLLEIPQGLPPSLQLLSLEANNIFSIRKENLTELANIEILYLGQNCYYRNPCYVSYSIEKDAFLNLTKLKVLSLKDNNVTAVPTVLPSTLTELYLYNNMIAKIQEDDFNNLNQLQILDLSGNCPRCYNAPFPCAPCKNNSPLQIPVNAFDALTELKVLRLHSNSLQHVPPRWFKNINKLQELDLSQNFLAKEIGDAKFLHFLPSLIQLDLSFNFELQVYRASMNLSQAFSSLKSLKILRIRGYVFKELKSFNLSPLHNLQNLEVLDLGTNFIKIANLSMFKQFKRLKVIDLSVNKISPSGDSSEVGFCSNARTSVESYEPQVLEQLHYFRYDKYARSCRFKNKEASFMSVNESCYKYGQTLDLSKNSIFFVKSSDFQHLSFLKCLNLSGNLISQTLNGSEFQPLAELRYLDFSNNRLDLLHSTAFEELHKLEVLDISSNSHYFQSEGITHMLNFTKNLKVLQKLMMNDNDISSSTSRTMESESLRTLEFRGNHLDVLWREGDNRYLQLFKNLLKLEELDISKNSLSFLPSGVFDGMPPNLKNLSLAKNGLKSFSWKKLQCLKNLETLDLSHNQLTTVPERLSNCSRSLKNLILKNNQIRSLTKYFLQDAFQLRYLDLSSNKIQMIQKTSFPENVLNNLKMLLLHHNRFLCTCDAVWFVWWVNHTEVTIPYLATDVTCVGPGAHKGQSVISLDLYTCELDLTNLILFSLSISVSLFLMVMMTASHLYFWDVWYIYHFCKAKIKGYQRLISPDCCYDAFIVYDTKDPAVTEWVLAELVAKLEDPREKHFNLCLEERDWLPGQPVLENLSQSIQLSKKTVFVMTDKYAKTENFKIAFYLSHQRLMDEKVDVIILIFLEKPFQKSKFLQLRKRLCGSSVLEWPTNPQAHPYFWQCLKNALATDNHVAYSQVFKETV
Procedure: (§1) TLR7/8/9 Inhibition Reporter Assays
(§2) HEK-Blue™-cells (Invivogen) overexpressing human TLR7, TLR8 or TLR9 receptors were used for screening inhibitors of these receptors using an inducible SEAP (secreted embryonic alkaline phosphatase) reporter gene under the control of the IFN-β minimal promoter fused to five NF-κB and AP-1-binding sites. Briefly, cells are seeded into Greiner 384 well plates (15000 cells per well for TLR7, 20,000 for TLR8 and 25,000 for TLR9) and then treated with test compounds in DMSO to yield a final dose response concentration range of 0.05 nM to 50 μM. After a 30 minute compound pre-treatment at room temperature, the cells are then stimulated with a TLR7 ligand (gardiquimod at a final concentration of 7.5 μM), TLR8 ligand (R848 at a final concentration of 15.9 μM) or TLR9 ligand (ODN2006 at a final concentration of 5 nM) to activate NF-κB and AP-1 which induce the production of SEAP. After a 22 hour incubation at 37° C., 5% CO2, SEAP levels are determined with the addition of HEK-Blue™ Detection reagent (Invivogen), a cell culture medium that allows for detection of SEAP, according to manufacturer's specifications. The percent inhibition is determined as the % reduction in the HEK-Blue signal present in wells treated with agonist plus DMSO alone compared to wells treated with a known inhibitor.

human TLR9 = molecular target: T2, human TLR9 (Homo sapiens, UniProt Q9NR96); experiment: TLR9 inhibition reporter assay (HEK-Blue SEAP); conditions: HEK-Blue cells overexpressing human TLR9, stimulated with ODN2006 5 nM, 22 hour incubation
T2 construct: host or cells: HEK-Blue cells
T2 sequence (Q9NR96 26-1032): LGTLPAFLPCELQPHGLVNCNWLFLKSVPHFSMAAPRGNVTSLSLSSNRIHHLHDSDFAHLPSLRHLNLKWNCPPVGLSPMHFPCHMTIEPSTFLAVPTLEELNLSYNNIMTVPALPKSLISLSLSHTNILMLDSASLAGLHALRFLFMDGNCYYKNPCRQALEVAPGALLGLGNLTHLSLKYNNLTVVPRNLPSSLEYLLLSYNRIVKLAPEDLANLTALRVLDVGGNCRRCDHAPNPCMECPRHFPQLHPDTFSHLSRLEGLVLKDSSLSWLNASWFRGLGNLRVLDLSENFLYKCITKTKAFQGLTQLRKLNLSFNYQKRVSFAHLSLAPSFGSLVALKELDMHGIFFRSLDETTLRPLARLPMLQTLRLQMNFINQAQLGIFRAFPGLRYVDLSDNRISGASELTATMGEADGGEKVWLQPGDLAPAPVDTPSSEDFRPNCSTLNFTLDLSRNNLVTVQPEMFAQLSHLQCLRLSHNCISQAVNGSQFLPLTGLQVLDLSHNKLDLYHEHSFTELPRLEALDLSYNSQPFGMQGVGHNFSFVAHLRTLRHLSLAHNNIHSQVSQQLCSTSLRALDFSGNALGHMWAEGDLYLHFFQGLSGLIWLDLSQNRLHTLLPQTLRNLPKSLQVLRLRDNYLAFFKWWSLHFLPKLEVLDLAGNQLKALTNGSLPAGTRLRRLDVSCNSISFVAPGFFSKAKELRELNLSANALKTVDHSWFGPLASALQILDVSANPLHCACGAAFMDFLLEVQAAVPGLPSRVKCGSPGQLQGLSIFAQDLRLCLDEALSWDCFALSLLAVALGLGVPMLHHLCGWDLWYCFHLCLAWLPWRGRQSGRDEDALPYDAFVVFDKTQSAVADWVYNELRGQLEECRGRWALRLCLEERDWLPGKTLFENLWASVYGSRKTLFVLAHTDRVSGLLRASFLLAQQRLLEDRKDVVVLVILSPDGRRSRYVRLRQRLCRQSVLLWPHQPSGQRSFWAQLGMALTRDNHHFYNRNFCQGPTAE
Procedure: as §1, §2

human TLR8 = molecular target: T3, human TLR8 (Homo sapiens, UniProt Q9NR97); experiment: TLR8 inhibition reporter assay (HEK-Blue SEAP); conditions: HEK-Blue cells overexpressing human TLR8, stimulated with R848 15.9 μM, 22 hour incubation
T3 construct: host or cells: HEK-Blue cells
T3 sequence (Q9NR97 27-1041): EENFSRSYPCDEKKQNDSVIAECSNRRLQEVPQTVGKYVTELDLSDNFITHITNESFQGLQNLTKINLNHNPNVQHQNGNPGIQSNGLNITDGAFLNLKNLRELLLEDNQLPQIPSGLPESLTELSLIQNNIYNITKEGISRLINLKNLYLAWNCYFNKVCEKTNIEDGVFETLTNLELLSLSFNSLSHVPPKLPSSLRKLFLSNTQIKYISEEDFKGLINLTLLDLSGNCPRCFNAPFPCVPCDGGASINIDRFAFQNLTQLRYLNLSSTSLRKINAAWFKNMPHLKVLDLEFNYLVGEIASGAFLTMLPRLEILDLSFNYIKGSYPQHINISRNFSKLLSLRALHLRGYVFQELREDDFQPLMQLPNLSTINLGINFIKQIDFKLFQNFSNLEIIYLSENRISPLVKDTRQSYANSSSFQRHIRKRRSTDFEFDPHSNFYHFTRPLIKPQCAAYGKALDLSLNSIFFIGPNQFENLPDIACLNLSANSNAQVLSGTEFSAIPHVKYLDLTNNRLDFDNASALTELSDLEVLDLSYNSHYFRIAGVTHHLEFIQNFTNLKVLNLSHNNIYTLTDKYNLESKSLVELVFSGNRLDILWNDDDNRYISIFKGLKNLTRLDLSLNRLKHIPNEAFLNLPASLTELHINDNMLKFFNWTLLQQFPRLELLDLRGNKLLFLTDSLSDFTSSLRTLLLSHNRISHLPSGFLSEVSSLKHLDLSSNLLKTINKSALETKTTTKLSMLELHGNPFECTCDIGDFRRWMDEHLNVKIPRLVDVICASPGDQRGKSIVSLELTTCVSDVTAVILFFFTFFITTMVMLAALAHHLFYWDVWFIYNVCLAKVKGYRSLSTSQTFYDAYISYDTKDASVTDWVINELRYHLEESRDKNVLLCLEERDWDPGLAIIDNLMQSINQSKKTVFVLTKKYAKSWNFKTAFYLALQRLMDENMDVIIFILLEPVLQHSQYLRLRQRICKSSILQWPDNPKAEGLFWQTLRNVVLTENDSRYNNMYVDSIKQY
Procedure: as §1, §2

## CCc1cc2c(C3CCC(N(C)C)CC3)n[nH]c2cc1-c1cc(C)c2ncnn2c1 (single isomer, unassigned) [Example 93, 4-(5-ethyl-6-(8-methyl-[1,2,4]triazolo[1,5-a]pyridin-6-yl)-1H-indazol-3-yl)-N,N-dimethylcyclohexan-1-amine]
Human TLR7
  IC50: 0.8 nM
Human TLR9
  IC50: 6120 nM
Human TLR8
  IC50: 0.1 nM

## CCc1cc2c(C3CCC(N(C)C)CC3)n[nH]c2cc1-c1cc(C)c2ncnn2c1 (single isomer, unassigned) [Example 94, 4-(5-ethyl-6-(8-methyl-[1,2,4]triazolo[1,5-a]pyridin-6-yl)-1H-indazol-3-yl)-N,N-dimethylcyclohexan-1-amine]
Human TLR7
  IC50: 3 nM
Human TLR9
  IC50: 10300 nM
Human TLR8
  IC50: 0.5 nM

## CCc1cc2c(C3CCC(NC4CC4)CC3)n[nH]c2cc1-c1cc(C)c2ncnn2c1 (single isomer, unassigned) [Example 97, N-cyclopropyl-4-(5-ethyl-6-(8-methyl-[1,2,4]triazolo[1,5-a]pyridin-6-yl)-1H-indazol-3-yl)cyclohexan-1-amine]
Human TLR7
  IC50: 0.6 nM
Human TLR9
  IC50: 5450 nM
Human TLR8
  IC50: 0.1 nM

## CCc1cc2c(C3CCC(NC4CC4)CC3)n[nH]c2cc1-c1cc(C)c2ncnn2c1 (single isomer, unassigned) [Example 98, N-cyclopropyl-4-(5-ethyl-6-(8-methyl-[1,2,4]triazolo[1,5-a]pyridin-6-yl)-1H-indazol-3-yl)cyclohexan-1-amine]
Human TLR7
  IC50: 2.5 nM
Human TLR9
  IC50: 6570 nM
Human TLR8
  IC50: 0.2 nM

## CCc1cc2c(C3CCC(NCCS(C)(=O)=O)CC3)n[nH]c2cc1-c1cc(C)c2ncnn2c1 (single isomer, unassigned) [Example 99, 4-(5-ethyl-6-(8-methyl-[1,2,4]triazolo[1,5-a]pyridin-6-yl)-1H-indazol-3-yl)-N-(2-(methylsulfonyl)ethyl)cyclohexan-1-amine]
Human TLR7
  IC50: 0.9 nM
Human TLR9
  IC50: 14000 nM
Human TLR8
  IC50: 0.1 nM

## CCc1cc2c(C3CCC(NCCS(C)(=O)=O)CC3)n[nH]c2cc1-c1cc(C)c2ncnn2c1 (single isomer, unassigned) [Example 100, 4-(5-ethyl-6-(8-methyl-[1,2,4]triazolo[1,5-a]pyridin-6-yl)-1H-indazol-3-yl)-N-(2-(methylsulfonyl)ethyl)cyclohexan-1-amine]
Human TLR7
  IC50: 7.5 nM
Human TLR9
  IC50: 17500 nM
Human TLR8
  IC50: 0.2 nM

## Cc1cc(-c2cc3[nH]nc(C4CCC(NC5CC5)CC4)c3cc2C(C)C)cn2ncnc12 (single isomer, unassigned) [Example 118, N-cyclopropyl-4-(5-isopropyl-6-(8-methyl-[1,2,4]triazolo[1,5-a]pyridin-6-yl)-1H-indazol-3-yl)cyclohexan-1-amine]
Human TLR7
  IC50: 0.3 nM
Human TLR9
  IC50: 4130 nM
Human TLR8
  IC50: 0.1 nM

## Cc1cc(-c2cc3[nH]nc(C4CCC(NC5CC5)CC4)c3cc2C(C)C)cn2ncnc12 (single isomer, unassigned) [Example 119, N-cyclopropyl-4-(5-isopropyl-6-(8-methyl-[1,2,4]triazolo[1,5-a]pyridin-6-yl)-1H-indazol-3-yl)cyclohexan-1-amine]
Human TLR7
  IC50: 1 nM
Human TLR9
  IC50: 4920 nM
Human TLR8
  IC50: 0.1 nM

## Cc1cc(-c2cc3[nH]nc(C4CCC(NCC(=O)N(C)C)CC4)c3cc2C(C)C)cn2ncnc12 (single isomer, unassigned) [Example 125, 2-((4-(5-isopropyl-6-(8-methyl-[1,2,4]triazolo[1,5-a]pyridin-6-yl)-1H-indazol-3-yl)cyclohexyl)amino)-N,N-dimethylacetamide]
Human TLR7
  IC50: 2.5 nM
Human TLR9
  IC50: 12100 nM
Human TLR8
  IC50: 0.3 nM

## Cc1cc(-c2cc3[nH]nc(C4CCC(N5CC6(COC6)C5)CC4)c3cc2C(C)C)cn2ncnc12 (single isomer, unassigned) [Example 128, 6-(4-(5-isopropyl-6-(8-methyl-[1,2,4]triazolo[1,5-a]pyridin-6-yl)-1H-indazol-3-yl)cyclohexyl)-2-oxa-6-azaspiro[3.3]heptane]
Human TLR7
  IC50: 0.6 nM
Human TLR9
  IC50: 9560 nM
Human TLR8
  IC50: 0.2 nM

## Cc1cc(-c2cc3[nH]nc(C4CCC(N5CC6(COC6)C5)CC4)c3cc2C(C)C)cn2ncnc12 (single isomer, unassigned) [Example 129, 6-(4-(5-isopropyl-6-(8-methyl-[1,2,4]triazolo[1,5-a]pyridin-6-yl)-1H-indazol-3-yl)cyclohexyl)-2-oxa-6-azaspiro[3.3]heptane]
Human TLR7
  IC50: 4.1 nM
Human TLR9
  IC50: 7550 nM
Human TLR8
  IC50: 0.5 nM

From patent US12172995B2, “Substituted indole and indazole compounds” (BRISTOL-MYERS SQUIBB COMPANY, priority 2018, dated 2024)
